Marks after values point to notes of the source that are not given here.
Columns and labels:
[1] = DPPH scavenging procedure
Method: (§1) All experiments were realized in 96-well microplates, and the absorbance measurements were carried out on a Multimode Plate Reader, EnSpire, PerkinElmer, Waltham (US) United States of America. […] The results were expressed as 50% inhibition (IC50) and absorbance at 0.5 (A0.5) concentrations that are able to inhibit/block/chelate 50% or reduce the absorbance to 0.5 of the radical, enzyme catalytic sites or the formation of metallic complexes/cations.
Results were provided as IC50 values, and the I% were calculated using the above formula (*).

Reducing power test = details: concentration at 0.50 absorbance
Method: as §1
Later, 50 μL of TCA (trichloroacetic acid) (10%) and 10 μL of ferric chloride (0.1%) were added before finally measuring the mixture’s absorbance at 700 nm.

[2] = Superoxide alkaline DMSO test
Method: as §1
The superoxide radical was produced as described Kunchandy’s method: 30 µL of NBT (nitroblue tetrazolium) (1 mg/mL) and 40 μL of sample were added to 130 μL alkaline DMSO (1.0 mL DMSO, 5 mMNaOH, 100 µL H2O). The absorbance of the reaction mixture was measured at 560 nm, and results were provided as IC50 values.

[3] = Cupric reducing antioxidant capacity (CUPRAC) assay; details: concentration at 0.50 absorbance
Method: as §1
The method described by Reference was used with no modifications. […] The result was given as A0.5 value.

[4] = β-Carotene/linoleic acid bleaching test
Method: as §1
Proceeding as described by Marco [23], with minor changes: 0.5 mg of β-carotene, 1 mL of chloroform, 25 μL of linoleic acid, and 200 μL of Tween 40 were added, forming an emulsified mixture. Then, it was evaporated under vacuum, and 50 mL of hydrogen peroxide (30%) were added with vigorous shaking. The absorbance at 470 nm should give a value between (0.8–0.9).

[5] = Galvinoxyl radical (GOR) scavenging assay
Method: as §1
The result was given as IC50 value.

[6] = ABTS scavenging procedure
Method: as §1
The ABTS^•+ scavenging ability was performed spectrophotometrically according to the modified procedure of Re et al.. First, the ABTS^•+ was prepared as follows: 2 mM of ABTS was dissolved in H2O with 2.45 mM potassium persulfate (K2S2O8), and the mixture was conserved at ambient temperature for 16 h in obscurity. […] Thereafter, the microplate was incubated for 10 min before measuring the absorbance at 734 nm. The equation below (*) was used to calculate the inhibition percentage of ABTS radical, and results were presented as IC50 values. I% = ((Ac − As)/Ac) × 100 (*)(1)

O-Phenanthroline assay = details: concentration at 0.50 absorbance
Method: as §1
Next, it was incubated for 20 min at 30 °C before measuring the absorbance at 510 nm. The result was given as A0.5 value.

urease = biological target: T1, urease (Canavalia ensiformis, UniProt P07374); format: biochemical, Canavalia ensiformis (Jack bean)
T1 construct: purchased Sigma Aldrich
T1 sequence (P07374 whole entry, looked up): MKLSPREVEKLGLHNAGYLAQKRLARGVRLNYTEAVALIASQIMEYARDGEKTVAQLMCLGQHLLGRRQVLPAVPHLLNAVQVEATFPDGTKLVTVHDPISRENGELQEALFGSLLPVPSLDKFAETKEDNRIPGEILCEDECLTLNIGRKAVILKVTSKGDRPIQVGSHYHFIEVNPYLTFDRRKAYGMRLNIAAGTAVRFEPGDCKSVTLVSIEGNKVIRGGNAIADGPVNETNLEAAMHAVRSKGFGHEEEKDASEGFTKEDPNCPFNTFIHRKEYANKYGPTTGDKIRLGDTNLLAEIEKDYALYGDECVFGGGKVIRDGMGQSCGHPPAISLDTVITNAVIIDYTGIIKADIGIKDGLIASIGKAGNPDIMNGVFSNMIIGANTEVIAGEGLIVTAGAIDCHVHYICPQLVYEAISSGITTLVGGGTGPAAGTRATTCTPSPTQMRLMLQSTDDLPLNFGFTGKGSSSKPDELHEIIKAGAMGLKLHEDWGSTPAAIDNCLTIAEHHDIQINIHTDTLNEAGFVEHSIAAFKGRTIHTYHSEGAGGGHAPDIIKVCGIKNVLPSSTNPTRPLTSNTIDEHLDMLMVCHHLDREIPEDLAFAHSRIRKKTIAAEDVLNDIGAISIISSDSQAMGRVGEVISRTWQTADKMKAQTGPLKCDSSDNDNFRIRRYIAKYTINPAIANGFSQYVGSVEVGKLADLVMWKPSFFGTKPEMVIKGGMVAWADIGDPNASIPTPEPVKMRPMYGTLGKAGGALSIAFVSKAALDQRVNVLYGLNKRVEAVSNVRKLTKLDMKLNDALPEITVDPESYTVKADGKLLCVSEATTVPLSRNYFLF
Method: Ultrapure water was obtained by a Milli-Q system (Millipore, Bedford, MA, USA).
All experiments were realized in 96-well microplates, and the absorbance measurements were carried out on a Multimode Plate Reader, EnSpire, PerkinElmer, Waltham (US) United States of America. […] The EamCE solution was prepared at seven different concentrations, (800, 400, 200, 100, 50, 25, 12.5 µg/mL) and every assay was realized in triplicate. The results were expressed as 50% inhibition (IC50) and absorbance at 0.5 (A0.5) concentrations that are able to inhibit/block/chelate 50% or reduce the absorbance to 0.5 of the radical, enzyme catalytic sites or the formation of metallic complexes/cations.
Urease inhibitory capability was determined by measuring ammonia production using the indophenol method [35]. Briefly, the reaction mixture consisted of 25 μL of enzyme solution ((5 U/mL) (Jack bean urease)), 10 μL of the EamCE solution, and 50 μL of urea substrate solution, then it was incubated at 30 °C for 15 min. Then, 45 μL of phenol reagent (2 g of phenol (C6H5OH) in 25 mL H2O + 25 mg of Na2[Fe(CN)5NO],2H2O in 25 mL H2O) and 70 μL of basic reagent (0.7125 g of NaOH in 25 mL H2O + 1.175 mL of NaOCl in 25 mL H2O) were added later. After 50 min of incubation, the absorbance was measured at 630 nm, and result was given as IC50 value.

[7] = Hydroxyl radical scavenging assay
Method: as §1
It was evaluated according to the modified method of Smirnoff and Cumbes. […] The microplate was incubated for 30 min at 37 °C, and 36 μL H2O was added; immediately, the absorbance was measured at 510 nm. The result was given as IC50 value.

[8] = Silver nanoparticle-based method (SNP)
Method: as §1
The reduction of Ag^+ to spherical silver nanoparticles (SNPs) was developed by Özyürek et al.. […] The microplate was incubated for 30 min at 25 °C, and the absorbance was read at 423 nm. […]

Compound	DPPH (IC50) [1]	Reducing Power (A0.5) (Reducing power test)	DMSO Alcalin (IC50) [2]	CUPRAC (A0.5) [3]	Beta Carotene (IC50) [4]	GOR (IC50) [5]	ABTS (IC50) [6]	Phenonthroline (A0.5) (O-Phenanthroline assay)	Anti-Urease IC50 (urease)	Hydroxyl Radical (IC50) [7]	SNP [8]
Cc1c(C)c2c(c(C)c1O)CC[C@@](C)(CCC[C@H](C)CCC[C@H](C)CCCC(C)C)O2 [α-Tocopherol]	13.02 ± 5.17 ^d µg/mL	34.93 ± 2.38 ^b µg/mL	˂3.125 µg/mL								
Cc1cc(C(C)(C)C)c(O)c(C(C)(C)C)c1 [BHT]	12.99 ± 0.41 ^b µg/mL			8.97 ± 3.94 ^b µg/mL	1.05 ± 0.03 ^b µg/mL	5.38 ± 0.06 ^b µg/mL	1.29 ± 0.30 ^b µg/mL	2.24 ± 0.17 ^b µg/mL			
NC(N)=S [Thiourea]									11.57 ± 0.68 ^b µg/mL		
O=C1O[C@H]([C@@H](O)CO)C(O)=C1O [Ascorbic Acid]		6.77 ± 1.15 ^c µg/mL		8.31 ± 0.15 ^d µg/mL		5.02 ± 0.01 ^d µg/mL		3.08 ± 0.02 ^d µg/mL		32.33 ± 1.17 ^b µg/mL	7.14 ± 0.05 ^b µg/mL
Cc1c(C)c2c(c(C)c1O)CCC(C)(C(=O)O)O2 (stereo not shown) [Trolox]	5.12 ± 0.21 ^e µg/mL	5.25 ± 0.20 ^e µg/mL		8.69 ± 0.14 ^e µg/mL		4.31 ± 0.05 ^e µg/mL	3.21 ± 0.06 ^d µg/mL	5.21 ± 0.27 ^e µg/mL			34.17 ± 1.23 ^c µg/mL
COc1ccc(O)c(C(C)(C)C)c1 [BHA]	6.14 ± 0.41 ^c µg/mL			5.35 ± 0.71 ^c µg/mL	0.91 ± 0.01 ^c µg/mL	3.32 ± 0.18 ^c µg/mL	1.81 ± 0.10 ^c µg/mL	0.93 ± 0.07 ^c µg/mL			
Tannic Acid		5.39 ± 0.91 ^d µg/mL	<3.125 µg/mL								

Source: publication PMC8774970 (Foods, 2022)
